# Data taken from ChEMBL document CHEMBL3507680, “University of Dundee, Gates Library screen for HepG2 cell viability”.
# Experiment: Human HepG2 cell viability assay in 384 well format
# Assay type: toxicity, cell-based
# Parameters: dose 125 nL, time 70.5 hour; cytotoxicity at 70.5 h: concentration not given beside the values
# Conditions: HepG2 cells, read-out: Inhibition
row,SMILES,cytotoxicity at 70.5 h
1,Cc1ncsc1CCN1CCC(N(C)Cc2ncc(C(C)C)o2)C1 (centres undefined),38.4%
2,CC(=O)c1ccc(N2CCN(C(=O)NCc3cc[nH]n3)CC2)cc1,-2.83%
3,CN(Cc1cccc(-n2cccn2)c1)c1cc(N2CCCC2)nc(N)n1,-16.8%
4,Cc1nn(C)c(C)c1C1COCCN1C(=O)c1ccccc1 (centres undefined),22.5%
5,CCc1ocnc1C(=O)N1CCCC1c1noc(C)n1 (centres undefined),-5.19%
6,Cc1ccc(C(=O)Nc2cc(C(N)=O)ccc2CN(C)C)cc1Cl,-7.51%
7,CCc1nc(C2CCCN(C(=O)c3cccc(Cl)c3)C2)no1 (centres undefined),-1.41%
8,COc1cc(N2CCC3(CC2)OCC(=O)NC3C)ncn1 (centres undefined),-4.57%
9,Cc1cc(C)c(C(=O)N2CCOCC2c2c(C)nn(C)c2C)o1 (centres undefined),-12.3%
10,COc1nc2c(cc1C(=O)N1CCCC1c1ccccn1)CCC2 (centres undefined),1.54%
11,COc1cc2c(cc1-c1nc3c(cnn3C(C)C(C)C)[nH]1)OCO2 (centres undefined),-0.404%
12,O=c1cc(C2CCNCC2)nc(Cc2cccc(Cl)c2)[nH]1,-5.11%
13,Cc1nn(CC(C)C)c(N(C)C)c1CNCc1ccnn1C,28.6%
14,Cc1nc(N)nc(C)c1CC(=O)N1CCCCC1c1cccc(F)c1 (centres undefined),-8.87%
15,CC(C)CCC(=O)N1CCN(C(=O)c2ccc(-n3cccn3)cc2)CC1,-3.97%
16,O=C(NCC1CCS(=O)(=O)C1)N(Cc1ccncc1)C1CC1 (centres undefined),-6.32%
17,COc1ccc(NC2CCCN(Cc3cnc(N(C)C)s3)C2)cc1 (centres undefined),-6.11%
18,Cc1cccc(CS(=O)(=O)c2nnc([C@@H](N)Cc3ccccc3)o2)c1,12.4%
19,CCC(C)n1c(SCC(=O)N2CCOCC2)nc2cc(C)[nH]c2c1=O (centres undefined),13.3%
20,O=C(c1ccncc1F)N1CCc2ncnc(N3CCOCC3)c2CC1,-9.98%
21,COc1ccnc(N2C[C@@H](NS(=O)(=O)N(C)C)[C@H](C(C)C)C2)n1,9.46%
22,CC(=O)N[C@@H]1CN(C(=O)c2cc3ccccc3[nH]2)C[C@H]1c1ccc(C)o1,-9.58%
23,CCC(CO)NCc1ccc(-c2ccc(F)cc2)o1 (centres undefined),-2.16%

row,SMILES,cytotoxicity at 70.5 h
1,COCCS(=O)(=O)NC(C)c1ccc(-n2nc(C)cc2C)cc1 (centres undefined),3.86%
2,CCN(CC)C(=O)C(c1ccccc1)N1CCn2c(C)nnc2C1 (centres undefined),2.24%
3,Cc1ccc(C)c(CC(=O)Nc2cnccc2SCCCO)c1,23.5%
4,CC(C#N)CSc1ccccc1NCC(=O)NCc1ccccc1 (centres undefined),4.47%
5,COC(=O)c1sc(NCc2ccc(N3CCC(O)CC3)c(F)c2)nc1Cl,-4.16%
6,COc1cccc(CCC2CCCN(C(=O)c3n[nH]c4c3CCC4)C2)c1 (centres undefined),0.453%
7,O=C(Nc1cccnc1N1CCSCC1)c1ccc2c(c1)CCO2,53.2%
8,CCc1nc(C2CCCN2C(=O)c2ccc3c(c2)nnn3CC)no1 (centres undefined),-3.25%
9,Cc1nc(C)c(C(=O)Nc2cccc(CN3CCC(CO)CC3)c2)o1,0.852%
10,CC(C)(CO)CCCNC(=O)NC1(c2cccc(F)c2)CC1,-8.07%
11,O=C(NCCCn1cccn1)C1(c2cccc(Cl)c2)CC1,55.5%
12,Cc1ccc(O)c(C(=O)N2CCC3(CCCNC3)C2)c1 (centres undefined),-7.79%
13,CCC1(CC)Cc2ccccc2-c2nc(CN(C)C)nc(O)c21,27.5%
14,CC(Cc1ccc2c(c1)OCO2)c1cn(CCN2CCCC2)nn1 (centres undefined),-12%
15,COc1cccc2[nH]cc(CCNC(=O)N3CCC[C@H]3CO)c12,-1.09%
16,CCN(CC1CCCO1)C(=O)NCCNC(=O)c1ccccc1F (centres undefined),43.4%
17,CN(C)C(C)(C)CNCc1cn(C)nc1-c1cccnc1,17.8%
18,COCc1cc(N(Cc2ccsc2)C2CC2)n2ncnc2n1,-6.87%
19,CN(C)Cc1n[nH]c2c1CCN(Cc1cccs1)C2,-4.47%
20,Cc1ncc(CNC(=O)NC2CCN(C3CCCC3)CC2)s1,-6.29%
21,CCc1c(C)sc2ncnc(N3C[C@H](O)[C@@H](N4CCCC4)C3)c12,-2.63%
22,CCN(CC)C(CNC(=O)c1ccc(-n2cncn2)cc1)c1ccsc1 (centres undefined),-3.69%
23,O=C(c1cn(CC(=O)N2CCc3[nH]cnc3C2)c2ccccc12)C1CC1,-5.73%

row,SMILES,cytotoxicity at 70.5 h
1,c1ccc(O[C@H]2C[C@@H]3CN(Cc4cnccn4)C[C@@H]3C2)cc1,-0.72%
2,CCc1nc(C2CCCN2Cc2cc(=O)n(C)c(=O)n2C)no1 (centres undefined),-16.4%
3,Cc1ccc(OC2(C(=O)N(C)Cc3ccoc3)CCNCC2)cc1,-16.8%
4,O=C1CC(Nc2ccc3nccnc3n2)CN1c1ccccc1 (centres undefined),-2.9%
5,Clc1cccc2c3c([nH]c12)CCN(Cc1cc2n(n1)CCCNC2)C3,35.7%
6,CCO[C@H]1CN(C)C[C@@H]1NC(=O)c1cc(C)nc2c(C)cccc12,-8.5%
7,c1cncc(CN2CCn3c(Cn4cncn4)cnc3C2)c1,-7.44%
8,O=C(NCc1cc(O)ncn1)C1CCOc2ccccc2C1 (centres undefined),-7.76%
9,CS(=O)(=O)CCOCCNc1ccc2ccc(F)cc2n1,-3.21%
10,Cc1nn(-c2ccccc2)cc1C(=O)N1CCCC(n2ccnc2C)C1 (centres undefined),-4.52%
11,Clc1ccc(C2(NCc3noc(C4CC4)n3)CCOCC2)cc1,-8.54%
12,CN(C)C(=O)N1C[C@H]2CCC[C@@]2(COc2ccccn2)C1,-8.44%
13,O=C(Cc1ccccn1)N1CCC(O)(Cn2ccc3ccncc32)CC1,-6.87%
14,O=C1COC2(CCN(Cc3ccncc3)CC2)CN1CC1CC1,4.04%
15,Cn1c(CN2CCOCC2)nnc1C1CCN(C(=O)C2CCCC2)CC1,2.41%
16,Fc1ccccc1Cc1noc(CN2CCC(N3CCSCC3)CC2)n1,-3.88%
17,Cc1cnc(N2CC3(CCN(S(=O)(=O)C4CC4)C3)C2)nc1,-11.5%
18,CN(C)c1ccc(CNC(=O)NCCc2ccccn2)cn1,-12.8%
19,COc1ccccc1CN(C)C(=O)C[S+]([O-])Cc1cc(C)on1 (centres undefined),-1.97%
20,Cc1cc(Cl)ccc1-n1ncc(C(=O)N(C)CCc2ccccn2)c1N,49.3%
21,CC(O)CN1CCN(C(=O)c2sccc2C2CC2)CC1 (centres undefined),-5.67%
22,CS(=O)(=O)NC[C@H]1OC[C@H]2CN(Cc3ccsc3)CC[C@H]21,2.09%
23,Cc1nn(C)c(N2CCOCC2)c1CNC1CCN(C2CC2)CC1,-6.05%

row,SMILES,cytotoxicity at 70.5 h
1,N[C@H]1CN(C(=O)c2ccccc2OCCc2ccccc2)C[C@@H]1C1CC1,-8.08%
2,Cc1ccc(CN2CCC(CNC(=O)Cn3cncn3)CC2)cc1,-6.33%
3,O=C(NCC1CC1)c1cnc(-c2ccccc2)nc1,-5.81%
4,CCCC1(CO)CCCN(c2ncccc2F)C1 (centres undefined),-7.06%
5,COc1nn(C)cc1C(=O)N1CCC(c2ccccc2)C1 (centres undefined),-1.63%
6,C[C@@H]1C[C@@H]2CCN(Cc3ccncc3)C[C@H]2O1,-3.23%
7,COCCC(=O)N1CCC2(COCc3cnc(-c4ccccc4)nc32)C1 (centres undefined),2.54%
8,Cc1nc(CN(Cc2cccnc2)Cc2ccsc2)c[nH]1,0.327%
9,CC(C)CCc1n[nH]c(C(=O)O)c1Br,-7.1%
10,CC(C)OCCN1CCN(C(=O)c2cc(-n3cccn3)ccn2)CC1,-4.55%
11,c1cncc(OC[C@]23COC[C@H]2CN(Cc2cccs2)C3)c1,-7.3%
12,COc1ccc(NC(C)C(=O)N2CCN(Cc3ccccc3)CC2)cn1 (centres undefined),-10%
13,CCc1cnc(N2CC3(CCN(Cc4ccsc4)C3)C2)nc1,18.4%
14,Cc1noc(CCCC(=O)Nc2ncccc2Br)n1,-7.59%
15,Cc1ccc(Nc2c(C#N)c(=O)n(C)c(=O)n2C)cc1F,-4.93%
16,CCSCCC(C)NC(=O)Nc1cccn(C)c1=O (centres undefined),-10%
17,Cc1cc(C)cc(OCn2ccc(C(=O)O)n2)c1,-10.3%
18,COc1ccc([C@@H]2CN(c3cnccn3)C[C@H]2N(C)C)cc1,22%
19,COC(=O)CCN(C)C(=O)c1csc(Cc2ccccc2F)n1,0.501%
20,O=C(c1cscn1)N1CCC2(CN(Cc3ccoc3)C2)C1,-9.97%
21,Cc1ncsc1CN1CCN(C2CCOCC2)CC(C(N)=O)C1 (centres undefined),10.5%
22,O=c1[nH]cnc2c1CCN(S(=O)(=O)c1ccc(OC(F)(F)F)cc1)C2,-9.4%
23,CCn1ccnc1CN1CCCN(C(=O)Cc2csc(C)n2)CC1,-5.98%

row,SMILES,cytotoxicity at 70.5 h
1,Cc1ccc(C(CNCC2CC2)N2CCOCC2)s1 (centres undefined),11.7%
2,Cc1ccc(C(=O)NC2CCN(Cc3noc(C(C)C)n3)CC2)s1,-8.2%
3,CC(=O)N(C)C(c1cccnc1)c1ccc(F)c(F)c1 (centres undefined),23.1%
4,Cc1cccc(S(=O)(=O)N2Cc3c(CN(C)C)nn(C)c3C2)c1,2.96%
5,Cc1noc(-c2cccnc2N(C)Cc2cc(C)on2)n1,-7.15%
6,O=C([C@H]1COC[C@H]2CN(C3CCOCC3)C[C@H]21)N1CCC(F)CC1,-8.13%
7,CCn1cnnc1C1CCN(C(=O)c2cnc3ccccc3n2)CC1,-16.4%
8,O=C(CSc1nc2c(cnn2CCO)c(=O)[nH]1)NC1CCCCC1,14.1%
9,CN1CCCN(c2nc(C3CC3)ns2)CC1,-3.92%
10,Cc1oncc1C(=O)N1CC[C@H]2[C@H](CO[C@@H]2CNS(C)(=O)=O)C1,-5.2%
11,COc1cccc2c1OCC(C(=O)NCCc1nnc(N)s1)C2 (centres undefined),-5.75%
12,Cc1cc(CN(Cc2ccccc2)C(C)CN2CCOCC2)no1 (centres undefined),-5.58%
13,CC(=O)N1CCCC(c2ccccn2)C1 (centres undefined),8.66%
14,CN(Cc1nccs1)C1CCN(c2ncccn2)CC1,-8.38%
15,CC1COCCN1C(=O)c1ccc(=O)n(Cc2ccccc2)n1 (centres undefined),-4.29%
16,Cc1cc(CNC(=O)NCC(O)c2cccc(F)c2)no1 (centres undefined),-10.8%
17,COc1cc(C(=O)N(Cc2cnn(C)c2)C(C)C)ccc1OCC(N)=O,4.9%
18,CCn1cc(CN2CCN(CC(O)c3ccc(C)cc3C)CC2)c(C)n1 (centres undefined),-6.8%
19,CCN1CC[C@@]2(C(=O)N(C)C)CCN(C(=O)NC(C)C)CC[C@@H]12,-4.36%
20,Cc1cc(C(=O)Nc2nnn[nH]2)ccc1I,-5.12%
21,CCC(NC(=O)Nc1cc(F)c(OC)c(F)c1)c1noc(C)n1 (centres undefined),0.154%
22,CCN(Cc1cnn(C)c1)S(=O)(=O)N1CCCC1c1ccco1 (centres undefined),3.59%
